Measurements taken from ChEMBL document CHEMBL1155312, “In vivo evaluation of diaminodiphenyls: anticonvulsant agents with minimal acute neurotoxicity” (Bioorg Med Chem Lett, 2009).

Key:
[1] = tested on: Rattus norvegicus; test: Anticonvulsant activity against kindle motor-induced seizure in rat assessed as after discharge duration at 100 mg/kg, ip after 45 mins by hippocampal kindling screen test; format: functional, Hippocampus; conditions: route intraperitoneal
[2] = tested on: Mus musculus; test: Anticonvulsant activity in CF1 albino mouse assessed as inhibition of minimal clonic seizure at 30 mg/kg, ip after 2 hrs; format: functional; conditions: route intraperitoneal
[3] = tested on: Rattus norvegicus; test: Anticonvulsant activity in Sprague-Dawley rat assessed as inhibition of maximal electric shock-induced seizure at 30 mg/kg, po after 4 hrs; format: functional
[4] = tested on: Rattus norvegicus; test: Anticonvulsant activity against kindle motor-induced seizure in rat assessed as after discharge duration at 100 mg/kg, ip after 195 mins by hippocampal kindling screen test; format: functional, Hippocampus; conditions: route intraperitoneal
[5] = tested on: Mus musculus; test: Anticonvulsant activity in CF1 albino mouse assessed as inhibition of maximal electric shock-induced seizure at 300 mg/kg, ip after 0.5 hrs; format: functional; conditions: route intraperitoneal
[6] = tested on: Mus musculus; test: Anticonvulsant activity in CF1 albino mouse assessed as inhibition of minimal clonic seizure at 80 mg/kg, ip after 4 hrs; format: functional; conditions: route intraperitoneal
[7] = tested on: Mus musculus; test: Anticonvulsant activity in CF1 albino mouse assessed as inhibition of maximal electric shock-induced seizure at 30 mg/kg, ip after 4 hrs; format: functional; conditions: route intraperitoneal
[8] = tested on: Mus musculus; test: Anticonvulsant activity in CF1 albino mouse assessed as inhibition of maximal electric shock-induced seizure at 100 mg/kg, ip after 0.5 hrs; format: functional; conditions: route intraperitoneal
[9] = tested on: Mus musculus; test: Anticonvulsant activity in CF1 albino mouse assessed as inhibition of minimal clonic seizure at 100 mg/kg, ip after 1 hrs; format: functional; conditions: route intraperitoneal
[10] = tested on: Rattus norvegicus; test: Anticonvulsant activity against kindle motor-induced seizure in rat assessed as after discharge duration at 100 mg/kg, ip after 105 mins by hippocampal kindling screen test; format: functional, Hippocampus; conditions: route intraperitoneal
[11] = tested on: Mus musculus; test: Anticonvulsant activity in CF1 albino mouse assessed as inhibition of minimal clonic seizure at 80 mg/kg, ip after 0.5 hrs; format: functional; conditions: route intraperitoneal
[12] = tested on: Mus musculus; test: Anticonvulsant activity in CF1 albino mouse assessed as inhibition of minimal clonic seizure at 100 mg/kg, ip after 0.25 hrs; format: functional; conditions: route intraperitoneal
[13] = tested on: Rattus norvegicus; test: Anticonvulsant activity in Sprague-Dawley rat assessed as inhibition of maximal electric shock-induced seizure at 30 mg/kg, po after 0.5 hrs; format: functional
[14] = tested on: Mus musculus; test: Anticonvulsant activity in CF1 albino mouse assessed as inhibition of maximal electric shock-induced seizure at 300 mg/kg, ip after 4 hrs; format: functional; conditions: route intraperitoneal
[15] = tested on: Rattus norvegicus; test: Anticonvulsant activity against kindle motor-induced seizure in rat assessed as after discharge duration at 100 mg/kg, ip after 255 mins by hippocampal kindling screen test; format: functional, Hippocampus; conditions: route intraperitoneal
[16] = tested on: Mus musculus; test: Anticonvulsant activity in CF1 albino mouse assessed as inhibition of minimal clonic seizure at 30 mg/kg, ip after 0.5 hrs; format: functional; conditions: route intraperitoneal
[17] = tested on: Rattus norvegicus; test: Anticonvulsant activity in Sprague-Dawley rat assessed as inhibition of maximal electric shock-induced seizure at 30 mg/kg, po after 0.25 hrs; format: functional
[18] = tested on: Mus musculus; test: Neurotoxicity in CF1 albino mouse at 300 mg/kg, ip by rotarod test after 4 hrs; format: toxicity, organism-based; set-up: dose 300 mg/kg, route intraperitoneal; conditions: in vivo
[19] = tested on: Mus musculus; test: Anticonvulsant activity in CF1 albino mouse assessed as inhibition of minimal clonic seizure at 80 mg/kg, ip after 1 hrs; format: functional; conditions: route intraperitoneal
[20] = tested on: Mus musculus; test: Anticonvulsant activity in CF1 albino mouse assessed as inhibition of minimal clonic seizure at 100 mg/kg, ip after 4 hrs; format: functional; conditions: route intraperitoneal
[21] = tested on: Mus musculus; test: Anticonvulsant activity in CF1 albino mouse assessed as inhibition of maximal electric shock-induced seizure at 30 mg/kg, ip after 0.5 hrs; format: functional; conditions: route intraperitoneal
[22] = tested on: Rattus norvegicus; test: Anticonvulsant activity against kindle motor-induced seizure in rat assessed as after discharge duration at 100 mg/kg, ip after 165 mins by hippocampal kindling screen test; format: functional, Hippocampus; conditions: route intraperitoneal
[23] = tested on: Rattus norvegicus; test: Anticonvulsant activity against kindle motor-induced seizure in rat assessed as after discharge duration at 100 mg/kg, ip after 15 mins by hippocampal kindling screen test; format: functional, Hippocampus; conditions: route intraperitoneal
[24] = tested on: Rattus norvegicus; test: Anticonvulsant activity against kindle motor-induced seizure in rat assessed as after discharge duration at 100 mg/kg, ip after 225 mins by hippocampal kindling screen test; format: functional, Hippocampus; conditions: route intraperitoneal
[25] = tested on: Mus musculus; test: Anticonvulsant activity in CF1 albino mouse assessed as inhibition of maximal electric shock-induced seizure at 100 mg/kg, ip after 4 hrs; format: functional; conditions: route intraperitoneal
[26] = tested on: Rattus norvegicus; test: Anticonvulsant activity against kindle motor-induced seizure in rat assessed as after discharge duration at 100 mg/kg, ip after 135 mins by hippocampal kindling screen test; format: functional, Hippocampus; conditions: route intraperitoneal
[27] = tested on: Mus musculus; test: Anticonvulsant activity in CF1 albino mouse assessed as inhibition of minimal clonic seizure at 80 mg/kg, ip after 0.25 hrs; format: functional; conditions: route intraperitoneal
[28] = tested on: Rattus norvegicus; test: Anticonvulsant activity in Sprague-Dawley rat assessed as inhibition of maximal electric shock-induced seizure at 30 mg/kg, po after 2 hrs; format: functional
[29] = tested on: Mus musculus; test: Anticonvulsant activity in CF1 albino mouse assessed as inhibition of minimal clonic seizure at 100 mg/kg, ip after 2 hrs; format: functional; conditions: route intraperitoneal
[30] = tested on: Mus musculus; test: Anticonvulsant activity in CF1 albino mouse assessed as inhibition of minimal clonic seizure at 80 mg/kg, ip after 2 hrs; format: functional; conditions: route intraperitoneal
[31] = tested on: Rattus norvegicus; test: Anticonvulsant activity in Sprague-Dawley rat assessed as inhibition of maximal electric shock-induced seizure at 30 mg/kg, po after 1 hrs; format: functional
[32] = tested on: Mus musculus; test: Anticonvulsant activity in CF1 albino mouse assessed as inhibition of minimal clonic seizure at 30 mg/kg, ip after 0.25 hrs; format: functional; conditions: route intraperitoneal
[33] = tested on: Rattus norvegicus; test: Anticonvulsant activity against kindle motor-induced seizure in rat assessed as after discharge duration at 100 mg/kg, ip after 75 mins by hippocampal kindling screen test; format: functional, Hippocampus; conditions: route intraperitoneal
[34] = tested on: Mus musculus; test: Anticonvulsant activity in CF1 albino mouse assessed as inhibition of minimal clonic seizure at 30 mg/kg, ip after 1 hrs; format: functional; conditions: route intraperitoneal
[35] = tested on: Mus musculus; test: Anticonvulsant activity in CF1 albino mouse assessed as inhibition of minimal clonic seizure at 100 mg/kg, ip after 0.5 hrs; format: functional; conditions: route intraperitoneal
[36] = tested on: Rattus norvegicus; test: Neurotoxicity in Sprague-Dawley rat at 500 mg/kg, po by positional sense and gait and stance test; format: toxicity, organism-based; set-up: dose 500 mg/kg, route oral; conditions: in vivo
[37] = tested on: Rattus norvegicus; test: Neurotoxicity in Sprague-Dawley rat at 500 mg/kg, po by positional sense and gait and stance test after 1 hrs; format: toxicity, organism-based; set-up: dose 500 mg/kg, route oral; conditions: in vivo
[38] = tested on: Rattus norvegicus; test: Neurotoxicity in Sprague-Dawley rat at 250 mg/kg, po by positional sense and gait and stance test; format: toxicity, organism-based; set-up: dose 250 mg/kg, route oral; conditions: in vivo
[39] = tested on: Mus musculus; test: Neurotoxicity in CF1 albino mouse at 100 mg/kg, ip by rotarod test; format: toxicity, organism-based; set-up: dose 100 mg/kg, route intraperitoneal; conditions: in vivo
[40] = tested on: Rattus norvegicus; test: Neurotoxicity in Sprague-Dawley rat at 30 mg/kg, po by positional sense and gait and stance test; format: toxicity, organism-based; set-up: dose 30 mg/kg, route oral; conditions: in vivo

SMILES	inhibition in vivo at 30 mg/kg [3] [%]	inhibition in vivo at 300 mg/kg [5] [%]	inhibition in vivo at 30 mg/kg [7] [%]	inhibition in vivo at 100 mg/kg [8] [%]	inhibition in vivo at 100 mg/kg [9] [%]	inhibition in vivo at 100 mg/kg [12] [%]	inhibition in vivo at 30 mg/kg [13] [%]	inhibition in vivo at 300 mg/kg [14] [%]	inhibition in vivo at 30 mg/kg [16] [%]	inhibition in vivo at 30 mg/kg [17] [%]	inhibition in vivo at 100 mg/kg [20] [%]	inhibition in vivo at 30 mg/kg [21] [%]	inhibition in vivo at 100 mg/kg [25] [%]	inhibition in vivo at 30 mg/kg [28] [%]	inhibition in vivo at 100 mg/kg [29] [%]	inhibition in vivo at 30 mg/kg [31] [%]	inhibition in vivo at 30 mg/kg [32] [%]	inhibition in vivo at 30 mg/kg [34] [%]	inhibition in vivo at 100 mg/kg [35] [%]	Activity [39]	further results
Nc1ccc(Sc2ccc(N)cc2)cc1 [4,4'-THIODIANILINE]	100	100	0	66	100	100	100	100	25	100	0	0	100	100	100	100	0	25	100	–	Activity [1]: 25.29 s; inhibition in vivo at 30 mg/kg [2]: 25%; Activity [4]: 55.29 s; inhibition in vivo at 80 mg/kg [6]: 0%; Activity [10]: 33.29 s; inhibition in vivo at 80 mg/kg [11]: 100%; Activity [15]: 65.43 s; Activity [18]: Non-toxic; inhibition in vivo at 80 mg/kg [19]: 100%; Activity [22]: 57.43 s; Activity [23]: 19.14 s; Activity [24]: 71.29 s; Activity [26]: 34.71 s; inhibition in vivo at 80 mg/kg [27]: 100%; inhibition in vivo at 80 mg/kg [30]: 75%; Activity [33]: 24.86 s
Nc1ccc(NC(=O)c2ccc(N)cc2)cc1	50	100	0	66	–	–	75	100	–	50	–	0	0	25	–	50	–	–	–	–	Activity [36]: Non-toxic
Nc1ccc(C(=O)c2ccc(N)cc2)cc1	75	100	0	100	100	100	100	100	0	50	0	0	100	100	0	75	0	0	100	–	Activity [37]: Non-toxic
Nc1ccc(Nc2cccc(N)c2)cc1	50	100	0	100	–	–	50	100	–	0	–	0	100	50	–	75	–	–	–	Non-toxic	Activity [38]: Non-toxic
Nc1ccc(Cc2ccc(N)cc2)cc1 [4,4'-METHYLENEDIANILINE]	50	100	0	100	–	–	75	100	–	100	–	0	0	100	–	100	–	–	–	Non-toxic	–
Nc1ccc(Oc2ccc(N)cc2)cc1	100	100	0	100	–	–	100	100	–	100	–	0	100	75	–	75	–	–	–	–	Activity [40]: Non-toxic
